Assay results from patent US20090047246A1, “NOVEL INHIBITORS OF HEPATITIS C VIRUS REPLICATION” (InterMune, Inc., priority 2007, published 2009).
Read-outs that look alike come from different tables or passages of the source.

Key:
HCV NS3/4a protease = HCV NS3/4a protease activity, effect of additives on reaction rate (Assay Example 1); type: biochemical, HCV genotype 1b-K2040; settings: 0.5 μM FRET substrate; base buffer 50 mM Tris-HCl pH 7.5, 15% glycerol; additive at the concentrations tested
Procedure: In order to identify reaction conditions that give high levels of HCV NS3/4a protease activity, several additives were analyzed to determine their effect on reaction rate. The base buffer used was 50 mM Tris-HCl, pH 7.5 containing 15% glycerol. The FRET-based assay substrate used (sequence: Ac-DE-Dap(QXL520)-EE-Abu-ψ-[COO]-AS-Cys(5-FAMsp)-NH2) was obtained from Anaspec, Inc. (San Jose, Calif.). The NS4a surrogate peptide used (KGSVVIVGRIILSGRK) was obtained from Midwest Biotech (Fishers, Ind.). The NS3 enzyme used was the benchmark wild-type full length enzyme derived from HCV genotype 1b-K2040. The reaction rate for the NS3 catalyzed hydrolysis of 0.5 μM substrate in base buffer was used as a reference.

HCV NS3 helicase = biological target: T1, HCV NS3 helicase (Hepatitis C virus genotype 1b, UniProt P26663); assay: HCV Helicase Prompt FRET Assay (Example A); type: biochemical; settings: read-out: IC50 Activity
T1 construct: full-length NS3 (1-631), purified at Array BioPharma
Summary of the method: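 Full-length NS3 (1-631), 5 or 6 nM, preincubated 5 min with compound, then unwinds 50 nM FAM/BHQ-1 duplex substrate with 250 nM capture strand and 300 μM ATP in 25 mM MOPS pH 7.0, 1.5 mM MgCl2, 0.005% Triton X-100, 2% DMSO. Fluorescence (485/535 nm) followed ~30 min at room temperature; IC50 from initial rates by 4- or 5-parameter fit.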

[1] = Table 37, compounds made using Scheme 55
[2] = Table 38, compounds made using Scheme 56, Scheme 57 and Scheme 61
[3] = Table 36, compounds made using Scheme 54

T1 sequence (P26663 1027-1657): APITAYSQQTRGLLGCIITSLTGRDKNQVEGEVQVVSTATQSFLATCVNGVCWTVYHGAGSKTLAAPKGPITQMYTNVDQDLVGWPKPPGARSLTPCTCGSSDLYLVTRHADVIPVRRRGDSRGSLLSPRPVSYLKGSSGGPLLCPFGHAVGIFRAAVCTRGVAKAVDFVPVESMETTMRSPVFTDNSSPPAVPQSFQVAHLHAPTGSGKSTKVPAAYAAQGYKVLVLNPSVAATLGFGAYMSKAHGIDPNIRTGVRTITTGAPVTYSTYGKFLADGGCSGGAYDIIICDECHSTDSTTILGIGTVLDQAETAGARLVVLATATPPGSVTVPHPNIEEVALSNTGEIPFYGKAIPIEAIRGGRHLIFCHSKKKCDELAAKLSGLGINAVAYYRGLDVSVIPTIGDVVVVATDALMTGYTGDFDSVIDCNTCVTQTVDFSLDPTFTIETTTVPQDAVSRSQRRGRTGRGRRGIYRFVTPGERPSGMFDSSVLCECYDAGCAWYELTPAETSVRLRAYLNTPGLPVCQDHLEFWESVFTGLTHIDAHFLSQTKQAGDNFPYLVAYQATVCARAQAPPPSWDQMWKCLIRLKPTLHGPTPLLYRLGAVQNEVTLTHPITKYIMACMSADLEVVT

Structure (SMILES)	IC50 (HCV NS3 helicase; [1])	also measured
O[C@@H](CS)[C@@H](O)CS [DTT]	–	Conclusion (effect of additive on NS3/4a protease reaction rate) (HCV NS3/4a protease): 10 and 30 mM DTT improve activity.
N#Cc1cccc(-c2ccc3c(CC(=O)O)cn(Cc4csc5ccc(Cl)cc45)c3c2)c1 [Example 756]	10 to 50 µM	–
N#Cc1ccc(-c2ccc3c(CC(=O)O)cn(Cc4csc5ccc(Cl)cc45)c3c2)cc1 [Example 757]	10 to 50 µM	–
O=C(O)Cc1cn(Cc2csc3ccc(Cl)cc23)c2cc(-c3ccncc3)ccc12 [Example 764]	10 to 50 µM	–
Cc1sc2ccc(Cl)cc2c1Cn1cc(CC(=O)O)c2ccc(-c3ccccc3)cc21 [Example 770]	< 10 µM	–
CCOC(=O)Cc1cn(Cc2csc3c(N(C=O)CC)cc(Cl)cc23)c2cc(Br)ccc12 [Example 771]	–	IC50 (HCV NS3 helicase; [2]): > 50 µM
CCNc1cc(Cl)cc2c(Cn3cc(CC(=O)O)c4ccc(Br)cc43)csc12 [Example 772]	–	IC50 (HCV NS3 helicase; [2]): > 50 µM
CC(C)(C)OC(=O)N(c1cc(Cl)cc2c(Cn3cc(CC(=O)O)c4ccc(Br)cc43)csc12)C1CC1 [Example 773]	–	IC50 (HCV NS3 helicase; [2]): > 50 µM
CC(C)(C)OC(=O)N(c1cc(Cl)cc2c(Cn3cc(CC(=O)O)c4ccc(Br)cc43)csc12)C1CC1 [Example 774]	–	IC50 (HCV NS3 helicase; [2]): < 10 µM
Cc1sc2ccc(Cl)cc2c1Cn1cc(CC(=O)O)c2ccc(Br)cc21 [Example 777]	–	IC50 (HCV NS3 helicase; [3]): 10 to 50 µM
Cc1sc2ccc(Cl)cc2c1Cn1cc(CC(=O)O)c2ccc(-c3cc(N)cc(N)c3)cc21 [Example 778]	–	IC50 (HCV NS3 helicase; [3]): < 10 µM
CCOC(=O)Cc1cn(Cc2csc3c(Cl)c(Cl)ccc23)c2cc(Br)ccc12 [Example 779]	–	IC50 (HCV NS3 helicase; [3]): > 50 µM

Now from value to molecule, other results behind:

IC50 (HCV NS3 helicase; [1])	Structure (SMILES)	also measured
> 50 µM	O=C(O)Cc1cn(Cc2csc3ccc(Cl)cc23)c2cc(-c3ccc(Cl)cc3)ccc12 [Example 753]	–
> 50 µM	O=C(O)Cc1cn(Cc2csc3ccc(Cl)cc23)c2cc(-c3cccc(Cl)c3)ccc12 [Example 754]	–
> 50 µM	N#Cc1ccccc1-c1ccc2c(CC(=O)O)cn(Cc3csc4ccc(Cl)cc34)c2c1 [Example 755]	–
> 50 µM	O=C(O)Cc1cn(Cc2csc3ccc(Cl)cc23)c2cc(-c3ccccc3F)ccc12 [Example 758]	–
> 50 µM	O=C(O)Cc1cn(Cc2csc3ccc(Cl)cc23)c2cc(-c3cccc(F)c3)ccc12 [Example 759]	–
10 to 50 µM	O=C(O)Cc1cn(Cc2csc3ccc(Cl)cc23)c2cc(-c3cccc(CO)c3)ccc12 [Example 760]	–
10 to 50 µM	CN(C)C(=O)c1cccc(-c2ccc3c(CC(=O)O)cn(Cc4csc5ccc(Cl)cc45)c3c2)c1 [Example 761]	–
> 50 µM	NC(=O)c1ccccc1-c1ccc2c(CC(=O)O)cn(Cc3csc4ccc(Cl)cc34)c2c1 [Example 762]	–
10 to 50 µM	NC(=O)c1cccc(-c2ccc3c(CC(=O)O)cn(Cc4csc5ccc(Cl)cc45)c3c2)c1 [Example 763]	–
< 10 µM	Nc1cccc(-c2ccc3c(CC(=O)O)cn(Cc4csc5ccc(Cl)cc45)c3c2)c1 [Example 765]	–
10 to 50 µM	CC(=O)Nc1cccc(-c2ccc3c(CC(=O)O)cn(Cc4csc5ccc(Cl)cc45)c3c2)c1 [Example 766]	–
10 to 50 µM	NC(=O)Nc1cccc(-c2ccc3c(CC(=O)O)cn(Cc4csc5ccc(Cl)cc45)c3c2)c1 [Example 767]	–
10 to 50 µM	CC(=O)Nc1ccccc1-c1ccc2c(CC(=O)O)cn(Cc3csc4ccc(Cl)cc34)c2c1 [Example 768]	–
> 50 µM	NC(=O)Nc1ccccc1-c1ccc2c(CC(=O)O)cn(Cc3csc4ccc(Cl)cc34)c2c1 [Example 769]	–
